# Measurements from article PMC11302729, “Repurposing Hsp90 inhibitors as antimicrobials targeting two-component systems identifies compounds leading to loss of bacterial membrane integrity” (Microbiology Spectrum, 2024).
# Several values for one entry are separate records, joined by “and”; a condition that tells them apart may be missing. Equal values may be shown once. Read-outs that look alike come from different tables or passages of the source.
# Experiments:
# Assay type in all cases: cell-based
# [1] = test system: Escherichia coli JW5503 (ΔtolC); experiment: MIC (microdilution) against E. coli JW5503; settings: for MIC: Escherichia coli, read-out: MIC E. coli JW5503; for MIC E. coli JW5503: Table ST1, ΔtolC mutant
# In short: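 Tested on E. coli JW5503 (ΔtolC, no TolC efflux) and D21f2 (defective LPS inner core, more permeable outer membrane) per EUCAST microdilution in Mueller-Hinton broth, twofold dilutions 50 to 0.39 µg/mL, 1:100-diluted overnight culture. 18 h at 37°C. MIC = lowest concentration with no growth by OD600.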
# [2] = in vitro; settings: human
# In short: (§1)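 Cytotoxicity was measured in HEK293 cells (5 × 10^4/well, precultured 24 h) exposed 24 h at 37 °C to compounds from a twofold dilution series made at 100–3.2 μg/mL in serum-free, phenol-red-free DMEM. Viability was read with 10% Alamar Blue (45 min, ex 541/em 590 nm) relative to 1% DMSO vehicle. Curves: four-parameter fit, bottom constrained 0.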
# [3] = test system: HEK293 cells; experiment: in vitro; settings: for Selectivity Index: LC50/MIC (HEK293 / S. aureus); for LC20: human, 24 h
# In short: as §1
# [4] = test system: Enterococcus faecium vanA (strain E1654); experiment: MIC (microdilution) against E. faecium; settings: for MIC: Enterococcus faecium, read-out: MIC E. faecium; for MIC E. faecium: Table ST1
# In short: (§2)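 EUCAST broth microdilution in Mueller-Hinton broth, twofold compound dilutions from 50 to 0.39 µg/mL, inoculum a 1:100 dilution of overnight culture. Incubated 18 h at 37°C; MIC taken as lowest concentration with no growth by OD600.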
# [5] = test system: Staphylococcus aureus str. Newman; experiment: Minimal inhibitory concentration (microdilution) against S. aureus; settings: for MIC S. aureus: Table ST3
# In short: as §2
# [6] = test system: S. aureus str. Newman; experiment: Membrane permeability using SYTOX-Green, flow cytometry; settings: for % FITC stained bacteria 0.5 xMIC: 0.5× MIC; for % FITC stained bacteria 2 xMIC: 2× MIC; for Membrane damage: if considered to cause membrane damage to S. aureus
# In short: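 Exponential-phase cells (OD600 0.4) in MHB were exposed to compound, pelleted into PBS, and stained with 0.5 µM SYTOX Green for 5 min in the dark. After washing off unbound dye, uptake was read by flow cytometry in the FITC channel, 488 nm excitation. Nisin and novobiocin served as positive and negative permeabilization controls.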
# [7] = test system: Enterococcus faecalis vanA (strain E0155); experiment: MIC (microdilution) against E. faecalis; settings: for MIC: Enterococcus faecalis, read-out: MIC E. faecalis; for MIC E. faecalis: Table ST1
# In short: as §2
# [8] = test system: Pasteurella haemolytica ATCC 29701; experiment: MIC (microdilution) against P. haemolytica; settings: for MIC: Mannheimia haemolytica
# In short: as §2
# [9] = test system: Escherichia coli ATCC 25922; experiment: MIC (microdilution) against E. coli; settings: for MIC: Escherichia coli; for MIC E. coli: Table ST1
# In short: as §2
# [10] = test system: Pseudomonas aeruginosa ATCC 27853; experiment: MIC (microdilution) against P. aeruginosa; settings: for MIC: Pseudomonas aeruginosa; for MIC P. aeruginosa: Table ST1
# In short: as §2
# [11] = Staphylococcus aureus, NEWMAN, Fig 2
# [12] = Staphylococcus aureus, NEWMAN, Fig 2, value in parentheses
# [13] = Table ST3, value in parentheses
# [14] = ATCC29701, read-out: MIC P. haemolytica, Table 1
# [15] = ATCC29701, read-out: MIC P. haemolytica, Table ST1
# [16] = ATCC25922, Table 1, read-out: MIC E. coli
# [17] = ATCC27853, Table 1, read-out: MIC P. aeruginosa
# [18] = ATCC25922, read-out: MIC E. coli
# [19] = ATCC27853, read-out: MIC P. aeruginosa
Structure (SMILES),MIC [1],MIC E. coli JW5503 [1],CC50 at 24 h [2],Selectivity Index [3],MIC [4],MIC E. faecium [4],"MIC [5, 11]","MIC [5, 12]",MIC S. aureus [5],"MIC [5, 13]",% FITC stained bacteria 0.5 xMIC ([6]; 5 min exposure),"% FITC stained bacteria 1 xMIC ([6]; 1× MIC, 5 min exposure)",% FITC stained bacteria 2 xMIC ([6]; 5 min exposure),Membrane damage [6],MIC [7],MIC E. faecalis [7],"MIC [8, 14]","MIC [8, 15]",MIC E. coli [9],MIC P. aeruginosa [10],also measured
COc1ccc(-c2[nH]nc(C(F)(F)F)c2-c2ccc(Cl)cc2)c(O)c1 [DPP-6],3.12 µg/mL,3.12 µg/mL,14.3 µg/mL and 38.6 µM,4.58,6.25 µg/mL,6.25 µg/mL,3.12 µg/mL,8.43 µM,3.12 µg/mL,8.43 µM,36.93%,44.48%,48.91%,YES,6.25 µg/mL,6.25 µg/mL,12.5 µg/mL,12.5 µg/mL,>250 µg/mL,>250 µg/mL,"LC20 [3]: 6 µg/mL; MIC [9, 16]: > 250 µg/mL; MIC [10, 17]: > 250 µg/mL"
COc1ccc(-c2[nH]nc(C(F)(F)F)c2-c2ccccc2)c(O)c1 [DPP-2],6.25 µg/mL,6.25 µg/mL,7.34 µg/mL and 21.9 µM,0.60,25 µg/mL,25 µg/mL,12.5 µg/mL,37.3 µM,12.50 µg/mL,37.3 µM,49.81%,54.03%,63.56%,YES,25 µg/mL,25 µg/mL,50 µg/mL,50 µg/mL,>250 µg/mL,>250 µg/mL,"MIC [9, 16]: > 250 µg/mL; MIC [10, 17]: > 250 µg/mL"
COc1ccc(-c2c(C(F)(F)F)n[nH]c2-c2ccc(O)cc2O)cc1 [DPP-12],12.5 µg/mL,12.5 µg/mL,31.7 µg/mL and 90.7 µM,2.54,50 µg/mL,50 µg/mL,12.5 µg/mL,35.7 µM,12.50 µg/mL,35.71 µM,9.04%,24.16%,29.11%,MILD,50 µg/mL,50 µg/mL,50 µg/mL,62.5 µg/mL,>250 µg/mL,>250 µg/mL,"MIC [9, 18]: > 250 µg/mL; MIC [10, 19]: > 250 µg/mL"
Oc1ccc(-c2n[nH]c(C(F)(F)F)c2-c2ccc(Cl)cc2)c(O)c1 [DPP-5],3.12 µg/mL,3.12 µg/mL,12.9 µg/mL and 36.3 µM,4.13,12.5 µg/mL,12.5 µg/mL,3.12 µg/mL,8.79 µM,3.12 µg/mL,8.79 µM,13.40%,13.42%,41.29%,MILD,12.5 µg/mL,12.5 µg/mL,,,50 µg/mL,>250 µg/mL,"LC20 [3]: 5 µg/mL; Loss of membrane integrity ([6]; 1× MIC, 5 min exposure): did not cause significant loss of membrane integrity; MIC ([8]; ATCC29701, Table 1, read-out: MIC P. haemolytica): 12.5 µg/mL; MIC P. haemolytica ([8]; Table ST1): 12.5 µg/mL; MIC [9, 16]: 50 µg/mL; MIC [10, 17]: > 250 µg/mL"
COc1ccc(-c2c(C(F)(F)F)n[nH]c2-c2ccc(OC)cc2O)cc1 [DPP-13],12.5 µg/mL,12.5 µg/mL,29.9 µg/mL and 82.1 µM,2.39,25 µg/mL,25 µg/mL,12.5 µg/mL,34.3 µM,12.50 µg/mL,34.34 µM,35.10%,45.40%,45.44%,YES,25 µg/mL,25 µg/mL,> 250 µg/mL,> 250 µg/mL,>250 µg/mL,>250 µg/mL,"MIC [9, 18]: > 250 µg/mL; MIC [10, 19]: > 250 µg/mL"
CCOc1ccc(-c2[nH]nc(C(F)(F)F)c2-c2ccc(Cl)cc2)c(O)c1 [DPP-7],3.12 µg/mL,3.12 µg/mL,10.8 µg/mL and 28.5 µM,3.47,3.12 µg/mL,3.12 µg/mL,3.12 µg/mL,8.21 µM,3.12 µg/mL,8.21 µM,42.44%,50.30%,54.59%,YES,3.12 µg/mL,3.12 µg/mL,25 µg/mL,25 µg/mL,>250 µg/mL,>250 µg/mL,"MIC [9, 16]: > 250 µg/mL; MIC [10, 17]: > 250 µg/mL"
